Article PMC8292346, “Dysfunction of the key ferroptosis-surveilling systems hypersensitizes mice to tubular necrosis during acute kidney injury” (Nature Communications, 2021)
Values joined by “and” are separate entries in the source; they are usually repeats but may differ in a detail not shown here. Equal entries are not always repeated. Where two headings read alike, the source gives them in different places.

Key:
5-HT3(h) = 5-HT3(h) (Homo sapiens, UniProt P46098); assay: Off-target radioligand binding screen; settings: read-out: 5-HT3(h) ($): inhibition of radioligand binding
α2A(h) = α2A(h) (Homo sapiens, UniProt P08913); assay: Off-target radioligand binding screen; settings: read-out: α2A(h) ($): inhibition of radioligand binding
5-HT1B (h) = 5-HT1B (h) (Homo sapiens, UniProt P28222); assay: Off-target radioligand binding screen; settings: read-out: 5-HT1B (h) ($): inhibition of radioligand binding
dopamine transporter(h) = dopamine transporter(h) (Homo sapiens, UniProt Q01959); assay: Off-target radioligand binding screen; settings: read-out: dopamine transporter(h) ($): inhibition of radioligand binding
CB2(h) = CB2(h) (Homo sapiens, UniProt P34972); assay: Off-target radioligand binding screen; settings: read-out: CB2(h) (#): inhibition of radioligand binding
[1] = both, microsomes, 2 µM, pH 7.4
ETA(h) = ETA(h) (Homo sapiens, UniProt P25101); assay: Off-target radioligand binding screen; settings: read-out: ETA(h) (#): inhibition of radioligand binding
[2] = molecular target: Potassium Channel hERG (human) (Homo sapiens, UniProt Q12809); assay: Off-target radioligand binding screen; settings: Nec-1f 10 µM
B6 LysM-GFP mice = assay: Intravital two-photon imaging of neutrophils in transplanted hearts; assay type: in vivo, mouse; settings: heart transplantation, recipient mice 2.0 mg/kg body weight
Protocol: Hearts harvested from wild-type C57BL/6 mice were transplanted into the right neck of syngeneic LysM-GFP hosts, as previously described. […] Intravital two-photon imaging was performed using a custom-built microscope running ImageWarp version 2.1 acquisition software (A&B Software). For time-lapse imaging of cell trafficking, we averaged 15 video-rate frames (0.5 s per slice) during the acquisition. Each plane represents an image of 220 × 240 μm in the x and y dimensions and twenty-one sequential planes were acquired in the z dimension (2.5-μm each). Each individual neutrophil was tracked from its first appearance in the imaging window and followed up to the time point at which it dislocated more than 20 μm from its starting position. Fifty microlitres PBS containing 15 μl 655-nm nontargeted Q-dots (Thermo Fisher Scientific) were injected prior to imaging to visualize coronary vessels and assess whether neutrophils were intravascular or extravascular. The number of extravascular neutrophils was divided by the sum of intravascular and extravascular neutrophils to calculate extravasation. Imaris (Bitplane) was used for multidimensional rendering and manual cell tracking.

CCK1 (CCKA) (h) = CCK1 (CCKA) (h) (Homo sapiens, UniProt P32238); assay: Off-target radioligand binding screen; settings: read-out: CCK1 (CCKA) (h) (#): inhibition of radioligand binding
KV channel = assay: Off-target radioligand binding screen; settings: Nec-1f 10 µM
β2(h) = β2(h) (Homo sapiens, UniProt P07550); assay: Off-target radioligand binding screen; settings: read-out: β2(h) ($): inhibition of radioligand binding
N neuronal α4β2 (h) = N neuronal α4β2 (h) (Homo sapiens, UniProt P17787+P43681); assay: Off-target radioligand binding screen; settings: read-out: N neuronal α4β2 (h) (#): inhibition of radioligand binding
M2 (h) = M2 (h) (Homo sapiens, UniProt P08172); assay: Off-target radioligand binding screen; settings: read-out: M2 (h) ($): inhibition of radioligand binding
5-HT2A(h) = 5-HT2A(h) (Homo sapiens, UniProt P28223); assay: Off-target radioligand binding screen; settings: read-out: 5-HT2A(h) (#): inhibition of radioligand binding
δ (DOP) (h) = δ (DOP) (h) (Homo sapiens, UniProt P41143); assay: Off-target radioligand binding screen; settings: read-out: δ (DOP) (h) (#): inhibition of radioligand binding
A2A(h) = A2A(h) (Homo sapiens, UniProt P29274); assay: Off-target radioligand binding screen; settings: read-out: A2A(h) (#): inhibition of radioligand binding
H1(h) = H1(h) (Homo sapiens, UniProt P35367); assay: Off-target radioligand binding screen; settings: read-out: H1(h) ($): inhibition of radioligand binding
α1A(h) = α1A(h) (Homo sapiens, UniProt P35348); assay: Off-target radioligand binding screen; settings: read-out: α1A(h) ($): inhibition of radioligand binding
M1(h) = M1(h) (Homo sapiens, UniProt P11229); assay: Off-target radioligand binding screen; settings: read-out: M1(h) ($): inhibition of radioligand binding
NIH3T3 cells = assay: TZ-induced necroptosis, 7-AAD/annexin V flow cytometry; assay type: cell-based, murine; settings: NIH3T3, TZ 16 h
Protocol: To induce necroptosis in a human cell line, HT29 cells were stimulated at the indicated time points with 20 ng/ml human TNFα (Biolegend), 1 μM SMAC-mimetics (Birinapant, Chemietek), and 20 μM zVAD-fmk (Selleckchem, herein referred to as zVAD). For the induction of necroptosis in NIH3T3 cells, cells were incubated with 20 ng/ml TNF-α and 20 μM zVAD for indicated time points. […] Cells were seeded in six-well plates or petri dishes. […] After indicated time points, cells were collected and prepared for flow cytometry, immunoblotting, and/or LDH release assays.
Cells were harvested and the pellets were washed twice in PBS and stained with 5 μl of 7-AAD (BD Biosciences) and 5 μl of annexin-V-FITC (BD Biosciences) added to 100 μl annexin-V binding buffer (BD Biosciences). After 15 min, cells were recorded on the LSRII with the FACS Diva 6.1.1 software (BD Biosciences) and subsequently analyzed with the FlowJo v10 software (Tree Star).

Chain of CCK1 (CCKA) (h) (P32238 whole entry): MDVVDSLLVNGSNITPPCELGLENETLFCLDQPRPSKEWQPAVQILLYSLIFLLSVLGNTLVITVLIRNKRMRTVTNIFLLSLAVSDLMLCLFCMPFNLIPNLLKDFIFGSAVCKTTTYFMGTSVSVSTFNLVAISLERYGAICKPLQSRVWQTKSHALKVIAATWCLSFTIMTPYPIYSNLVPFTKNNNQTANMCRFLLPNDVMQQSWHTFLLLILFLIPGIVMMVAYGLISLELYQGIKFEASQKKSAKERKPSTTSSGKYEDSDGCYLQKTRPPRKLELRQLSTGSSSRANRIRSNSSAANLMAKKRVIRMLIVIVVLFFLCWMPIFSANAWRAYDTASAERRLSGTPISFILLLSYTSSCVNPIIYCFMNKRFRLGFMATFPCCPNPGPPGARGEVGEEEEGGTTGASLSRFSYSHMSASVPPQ
Chain of A2A(h) (P29274 whole entry): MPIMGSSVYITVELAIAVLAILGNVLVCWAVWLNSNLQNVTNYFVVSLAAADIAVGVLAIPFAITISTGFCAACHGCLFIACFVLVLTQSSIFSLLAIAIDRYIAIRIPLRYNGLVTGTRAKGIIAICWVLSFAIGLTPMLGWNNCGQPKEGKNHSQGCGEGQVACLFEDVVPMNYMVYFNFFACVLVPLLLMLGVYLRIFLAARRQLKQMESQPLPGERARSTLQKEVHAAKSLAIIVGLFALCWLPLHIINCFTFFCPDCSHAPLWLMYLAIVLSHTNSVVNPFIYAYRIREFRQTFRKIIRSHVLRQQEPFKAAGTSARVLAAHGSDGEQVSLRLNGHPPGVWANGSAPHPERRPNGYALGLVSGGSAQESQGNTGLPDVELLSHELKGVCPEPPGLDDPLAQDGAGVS
Chain of H1(h) (P35367 whole entry): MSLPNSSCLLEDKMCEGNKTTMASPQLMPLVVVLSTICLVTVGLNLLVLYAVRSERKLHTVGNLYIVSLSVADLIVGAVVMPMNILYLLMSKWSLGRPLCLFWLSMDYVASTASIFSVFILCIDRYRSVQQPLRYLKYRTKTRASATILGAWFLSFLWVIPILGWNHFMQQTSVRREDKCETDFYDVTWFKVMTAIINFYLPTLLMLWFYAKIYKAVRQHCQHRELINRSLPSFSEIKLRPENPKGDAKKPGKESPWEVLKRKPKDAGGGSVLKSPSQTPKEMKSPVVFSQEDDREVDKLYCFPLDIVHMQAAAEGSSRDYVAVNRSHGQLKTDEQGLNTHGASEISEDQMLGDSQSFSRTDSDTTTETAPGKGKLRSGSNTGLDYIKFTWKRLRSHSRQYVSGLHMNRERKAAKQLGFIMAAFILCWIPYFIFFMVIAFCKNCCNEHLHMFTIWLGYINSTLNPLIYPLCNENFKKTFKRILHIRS
Chain of M1(h) (P11229 whole entry): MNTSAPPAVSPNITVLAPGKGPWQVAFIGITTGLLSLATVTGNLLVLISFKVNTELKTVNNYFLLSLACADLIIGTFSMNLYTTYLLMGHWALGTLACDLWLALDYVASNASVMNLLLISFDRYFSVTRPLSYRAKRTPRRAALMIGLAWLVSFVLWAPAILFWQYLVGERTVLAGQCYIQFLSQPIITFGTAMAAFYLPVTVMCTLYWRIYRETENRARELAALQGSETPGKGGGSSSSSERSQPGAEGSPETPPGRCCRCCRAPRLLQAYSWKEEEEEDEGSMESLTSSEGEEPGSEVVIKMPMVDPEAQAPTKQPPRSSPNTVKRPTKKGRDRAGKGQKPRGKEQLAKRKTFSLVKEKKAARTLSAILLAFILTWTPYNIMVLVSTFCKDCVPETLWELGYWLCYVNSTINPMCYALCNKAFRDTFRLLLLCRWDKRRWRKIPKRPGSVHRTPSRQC
Chain of Potassium Channel hERG (human) (Q12809 whole entry): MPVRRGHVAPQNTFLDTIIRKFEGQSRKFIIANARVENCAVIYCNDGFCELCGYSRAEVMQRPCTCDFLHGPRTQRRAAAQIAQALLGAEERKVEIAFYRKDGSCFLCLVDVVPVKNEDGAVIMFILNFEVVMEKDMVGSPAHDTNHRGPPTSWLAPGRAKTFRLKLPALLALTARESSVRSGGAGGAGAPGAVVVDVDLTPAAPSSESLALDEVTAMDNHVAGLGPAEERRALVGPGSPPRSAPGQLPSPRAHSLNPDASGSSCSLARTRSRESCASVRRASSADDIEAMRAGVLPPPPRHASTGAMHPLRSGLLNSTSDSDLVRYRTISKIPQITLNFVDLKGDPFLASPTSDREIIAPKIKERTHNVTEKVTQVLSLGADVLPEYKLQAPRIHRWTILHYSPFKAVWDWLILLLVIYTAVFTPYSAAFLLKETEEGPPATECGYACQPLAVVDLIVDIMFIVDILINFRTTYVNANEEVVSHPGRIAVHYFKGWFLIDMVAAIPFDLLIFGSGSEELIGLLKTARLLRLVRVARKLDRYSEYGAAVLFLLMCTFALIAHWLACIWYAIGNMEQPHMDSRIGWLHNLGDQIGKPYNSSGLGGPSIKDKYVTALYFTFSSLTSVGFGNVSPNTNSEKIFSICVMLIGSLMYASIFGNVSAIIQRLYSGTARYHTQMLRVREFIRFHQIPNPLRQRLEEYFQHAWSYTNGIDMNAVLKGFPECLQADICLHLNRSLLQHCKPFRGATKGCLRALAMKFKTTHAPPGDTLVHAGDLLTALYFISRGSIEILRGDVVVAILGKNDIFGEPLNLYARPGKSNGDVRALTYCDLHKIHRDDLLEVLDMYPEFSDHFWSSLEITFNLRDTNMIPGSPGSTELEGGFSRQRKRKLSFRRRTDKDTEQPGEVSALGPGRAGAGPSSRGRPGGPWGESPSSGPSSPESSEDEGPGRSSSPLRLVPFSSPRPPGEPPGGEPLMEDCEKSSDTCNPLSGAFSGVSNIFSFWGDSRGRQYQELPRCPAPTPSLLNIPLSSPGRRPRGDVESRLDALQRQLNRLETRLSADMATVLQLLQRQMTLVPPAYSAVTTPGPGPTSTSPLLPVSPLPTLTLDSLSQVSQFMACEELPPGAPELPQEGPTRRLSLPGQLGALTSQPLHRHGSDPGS
Chain of N neuronal α4β2 (h) (P43681 29-627 limits assumed): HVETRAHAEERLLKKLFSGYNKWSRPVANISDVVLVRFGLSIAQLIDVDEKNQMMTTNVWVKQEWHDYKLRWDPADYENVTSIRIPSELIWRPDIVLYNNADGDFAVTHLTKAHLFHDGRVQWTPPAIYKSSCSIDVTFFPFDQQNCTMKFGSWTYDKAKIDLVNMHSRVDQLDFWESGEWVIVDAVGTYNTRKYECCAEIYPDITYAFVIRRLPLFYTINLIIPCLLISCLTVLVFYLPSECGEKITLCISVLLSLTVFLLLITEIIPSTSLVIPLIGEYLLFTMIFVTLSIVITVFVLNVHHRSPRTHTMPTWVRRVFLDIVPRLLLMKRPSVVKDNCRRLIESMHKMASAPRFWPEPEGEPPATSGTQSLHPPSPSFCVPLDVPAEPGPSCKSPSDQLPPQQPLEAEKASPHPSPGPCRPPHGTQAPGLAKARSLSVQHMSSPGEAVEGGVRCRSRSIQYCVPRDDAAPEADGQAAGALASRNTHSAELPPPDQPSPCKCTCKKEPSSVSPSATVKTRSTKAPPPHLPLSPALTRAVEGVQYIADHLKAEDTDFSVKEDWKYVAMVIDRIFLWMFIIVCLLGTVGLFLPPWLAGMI
Chain of N neuronal α4β2 (h) (P17787 26-502): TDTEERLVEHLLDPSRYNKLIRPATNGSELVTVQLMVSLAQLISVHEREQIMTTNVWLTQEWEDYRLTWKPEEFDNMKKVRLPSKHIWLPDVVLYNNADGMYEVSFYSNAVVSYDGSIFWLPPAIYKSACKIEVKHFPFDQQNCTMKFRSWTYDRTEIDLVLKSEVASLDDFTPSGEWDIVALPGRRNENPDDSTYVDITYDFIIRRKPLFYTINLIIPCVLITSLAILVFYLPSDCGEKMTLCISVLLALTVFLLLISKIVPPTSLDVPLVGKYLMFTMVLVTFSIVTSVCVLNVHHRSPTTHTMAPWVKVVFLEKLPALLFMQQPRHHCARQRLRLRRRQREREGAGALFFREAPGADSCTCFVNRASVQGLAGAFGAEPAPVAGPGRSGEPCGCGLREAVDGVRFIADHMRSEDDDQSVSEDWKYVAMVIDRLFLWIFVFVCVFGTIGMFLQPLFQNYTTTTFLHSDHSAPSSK
Chain of β2(h) (P07550 whole entry): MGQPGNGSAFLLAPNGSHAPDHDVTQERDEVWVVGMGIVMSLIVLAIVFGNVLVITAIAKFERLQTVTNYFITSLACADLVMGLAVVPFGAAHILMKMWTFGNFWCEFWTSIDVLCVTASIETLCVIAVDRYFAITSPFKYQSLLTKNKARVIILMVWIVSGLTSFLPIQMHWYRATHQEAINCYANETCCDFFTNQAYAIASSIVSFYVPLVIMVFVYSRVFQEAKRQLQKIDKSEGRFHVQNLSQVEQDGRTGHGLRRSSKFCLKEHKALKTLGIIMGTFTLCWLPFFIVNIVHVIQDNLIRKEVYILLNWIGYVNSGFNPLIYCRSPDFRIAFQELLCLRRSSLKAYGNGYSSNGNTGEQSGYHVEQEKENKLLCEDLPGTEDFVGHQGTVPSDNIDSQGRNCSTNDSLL
Chain of M2 (h) (P08172 whole entry): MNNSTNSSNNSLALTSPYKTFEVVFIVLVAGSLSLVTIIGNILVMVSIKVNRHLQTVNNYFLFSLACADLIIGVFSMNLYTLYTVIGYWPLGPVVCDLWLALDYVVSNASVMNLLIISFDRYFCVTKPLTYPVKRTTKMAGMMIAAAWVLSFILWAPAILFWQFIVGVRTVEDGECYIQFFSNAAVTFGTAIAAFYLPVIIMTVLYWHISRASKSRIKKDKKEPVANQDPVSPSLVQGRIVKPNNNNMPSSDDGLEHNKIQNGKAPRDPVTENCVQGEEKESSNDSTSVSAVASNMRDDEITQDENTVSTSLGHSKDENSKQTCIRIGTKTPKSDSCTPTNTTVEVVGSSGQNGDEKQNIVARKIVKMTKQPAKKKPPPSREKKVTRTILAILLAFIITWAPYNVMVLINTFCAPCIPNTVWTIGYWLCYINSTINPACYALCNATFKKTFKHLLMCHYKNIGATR

Work on CN1C(=O)C(Cc2c[nH]c3c(Cl)cccc23)NC1=S (stereo not shown) [Nec-1f] yielded an inhibition at 10 µM (5-HT3(h)) of 10.4%, an inhibition at 10 µM (α2A(h)) of -2% and an inhibition at 10 µM (5-HT1B (h)) of -12.9%. The inhibition at 10 µM (dopamine transporter(h)) was 34.3%, the inhibition at 10 µM (CB2(h)) was -12.8% and the “Human microsomal stability, parent compound remaining” value ([1]; 0 h) was 100%. For the same molecule, the “Human microsomal stability, parent compound remaining” value ([1]; 7 min) was 80%, the “Human microsomal stability, parent compound remaining” value ([1]; 0.25 h) was 65% and the “Human microsomal stability, parent compound remaining” value ([1]; 25 min) was 48%. The “Human microsomal stability, parent compound remaining” value ([1]; 40 min) was 34%, the inhibition at 10 µM (ETA(h)) was 0.9% and the “Potassium Channel hERG (human)- [3H] Dofetilide: inhibition of radioligand binding” value [2] was -2.7%. The “Density of neutrophils” value (B6 LysM-GFP mice) was “highly significant decreases”, the “Extravasation of neutrophils” value (B6 LysM-GFP mice) was “highly significant reductions” and the “Neutrophil rolling velocities” value (B6 LysM-GFP mice) was “significant increases”. The “Rate of neutrophil recruitment to the graft” value (B6 LysM-GFP mice) was “did not alter”, the inhibition at 10 µM (CCK1 (CCKA) (h)) was 28.3% and the “KV channel ($): inhibition of radioligand binding” value (KV channel) was 1.7%. The inhibition at 10 µM (β2(h)) was 1.4%, the inhibition at 10 µM (N neuronal α4β2 (h)) was 3.6% and the inhibition at 10 µM (M2 (h)) was -1.7%. The inhibition at 10 µM (5-HT2A(h)) was -2.8%, the inhibition at 10 µM (δ (DOP) (h)) was 2.8% and the inhibition at 10 µM (A2A(h)) was -0.3%. The inhibition at 10 µM (H1(h)) was 9.3%, the inhibition at 10 µM (α1A(h)) was 4.8% and the inhibition at 10 µM (M1(h)) was -7.3%.

With CCOC(=O)c1ccc(NC2CCCCC2)c(N)c1 [Fer-1, ferrostatin-1] the “7-AAD/annexin V flow cytometry, source data of bar graph Fig2i” value (NIH3T3 cells) was 7.78% and 9.49% and 6.87% and 10.1%.
